According to patent US6465663B2, “O- or S-substituted tetrahydronaphthalene derivatives having retinoid and/or retinoid antagonist-like biological activity” (Allergan, Inc., priority 1996, dated 2002):

Tests used:
[1] = system: ornithine decarboxylase (ODC); test: ODC assay: inhibition of TPA induction of ornithine decarboxylase activity; format: in vivo; conditions: for IC60: concentration of the test compound which causes 60% inhibition in the ODC assay
Excerpt: A classic measure of retinoic acid activity involves measuring the effects of retinoic acid on ornithine decarboxylase. […] That reference discloses that ornithine decarboxylase (ODC) activity increased precedent to polyamine biosynthesis. It has been established elsewhere that increases in polyamine synthesis can be correlated or associated with cellular proliferation. Thus, if ODC activity could be inhibited, cell hyperproliferation could be modulated. Although all cases for ODC activity increases are unknown, it is known that 12-0-tetradecanoylphorbol-13-acetate (TPA) induces ODC activity. Retinoic acid inhibits this induction of ODC activity by TPA.

[2] = biological target: T1, RARα (Homo sapiens, UniProt P10276); test: Ligand binding assay
T1 sequence (P10276 1-462): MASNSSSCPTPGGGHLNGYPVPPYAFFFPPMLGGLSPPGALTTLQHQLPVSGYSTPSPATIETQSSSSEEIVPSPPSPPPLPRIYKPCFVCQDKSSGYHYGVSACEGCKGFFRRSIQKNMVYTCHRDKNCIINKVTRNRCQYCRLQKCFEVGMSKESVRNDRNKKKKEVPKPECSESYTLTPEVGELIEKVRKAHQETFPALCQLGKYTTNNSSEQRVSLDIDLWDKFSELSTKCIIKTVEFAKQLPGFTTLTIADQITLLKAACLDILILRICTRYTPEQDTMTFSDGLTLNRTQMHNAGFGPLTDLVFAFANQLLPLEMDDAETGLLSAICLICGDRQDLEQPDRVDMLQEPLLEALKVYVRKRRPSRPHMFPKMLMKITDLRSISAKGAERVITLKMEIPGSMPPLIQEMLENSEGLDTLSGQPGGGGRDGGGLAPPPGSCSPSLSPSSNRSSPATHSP
Excerpt: (§1) Other assays described below, measure the ability of the compounds of the present invention to bind to, and/or activate various retinoid receptor subtypes. When in these assays a compound binds to a given receptor subtype and activates the transcription of a reporter gene through that subtype, then the compound is considered an agonist of that receptor subtype. […] In the below described assays the ability of the compounds to bind to RARα, RARβ, RARγ, RXRα, RXRβ and RXRΓ receptors, and the ability or inability of the compounds to activate transcription of a reporter gene through these receptor subtypes can be tested.
(§2) A holoreceptor transactivation assay and a ligand binding assay which measure the antagonist/agonist like activity of the compounds of the invention, or their ability to bind to the several retinoid receptor subtypes, respectively, are described in published PCT Application No. WO WO93/11755 (particularly on pages 30-33 and 37-41) published on Jun. 24, 1993, the specification of which is also incorporated herein by reference. A description of the holoreceptor transactivation assay is also provided below.
(§3) CV1 cells (5,000 cells/well) were transfected with an RAR reporter plasmid MTV-TREp-LUC (50 ng) along with one of the RAR expression vectors (10 ng) in an automated 96-well format by the calcium phosphate procedure of Heyman et al. Cell 68, 397-406, (1992). For RXRα and RXRγ transactivation assays, an RXR-responsive reporter plasmid CRBPII-tk-LUC (50 ng) along with the appropriate RXR expression vectors (10 ng) was used substantially as described by Heyman et al. above, and Allegretto et al. J. Biol. Chem. 268, 26625-26633. For RXRβ transactivation assays, an RXR-responsive reporter plasmid CPRE-tk-LUC ([…]) along with RXRβ expression vector ([…]) was used as described in above. These reporters contain DRI elements from human CRBPII and certain DRI elements from promoter, respectively. (see Mangelsdorf et al. The Retinoids: Biology, Chemistry and Medicine, pp 319-349, Raven Press Ltd., New York and Heyman et al., cited above) (1, 8). A β-galactosidase (50 ng) expression vector was used as an internal control in the transfections to normalize for variations in transfection efficiency. The cells were transfected in triplicate for 6 hours, followed by incubation with retinoids for 36 hours, and the extracts were assayed for luciferase and β-galactosidase activities. The detailed experimental procedure for holoreceptor transactivations has been described in Heyman et al. above, and Allegretto et al. cited above. The results obtained in this assay are expressed in EC50 numbers, as they are also in the chimeric receptor transactivation assay. The Heyman et al. Cell 68, 397-406, Allegretto et al. J. Biol. Chem. 268, 26625-26633, and Mangelsdorf et al. The Retinoids: Biology, Chemistry and Medicine, pp 319-349, Raven Press Ltd., New York, are expressly incorporated herein by reference. The results of ligand binding assay are expressed in Kd numbers. (See Cheng et al. Biochemical Pharmacology Vol. 22 pp 3099-3108, expressly incorporated herein by reference.)

[3] = biological target: T2, RARγ (Homo sapiens, UniProt P13631); test: Ligand binding assay
T2 sequence (P13631 1-454): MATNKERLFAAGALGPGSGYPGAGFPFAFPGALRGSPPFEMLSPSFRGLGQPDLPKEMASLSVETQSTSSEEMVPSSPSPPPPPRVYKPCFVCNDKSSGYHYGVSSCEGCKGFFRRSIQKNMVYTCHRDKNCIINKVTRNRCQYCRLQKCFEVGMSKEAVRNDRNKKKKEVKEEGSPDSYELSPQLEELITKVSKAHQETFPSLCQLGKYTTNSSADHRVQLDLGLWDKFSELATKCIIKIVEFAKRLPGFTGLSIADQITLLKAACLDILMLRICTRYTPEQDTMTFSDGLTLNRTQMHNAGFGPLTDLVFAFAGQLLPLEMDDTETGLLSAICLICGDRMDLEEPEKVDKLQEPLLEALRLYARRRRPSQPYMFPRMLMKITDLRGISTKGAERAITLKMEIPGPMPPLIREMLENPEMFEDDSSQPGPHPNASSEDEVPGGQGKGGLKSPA
Excerpt: as §1, §2, §3

[4] = biological target: T3, RARβ (Homo sapiens, UniProt P10826); test: Ligand binding assay
T3 sequence (P10826 1-455): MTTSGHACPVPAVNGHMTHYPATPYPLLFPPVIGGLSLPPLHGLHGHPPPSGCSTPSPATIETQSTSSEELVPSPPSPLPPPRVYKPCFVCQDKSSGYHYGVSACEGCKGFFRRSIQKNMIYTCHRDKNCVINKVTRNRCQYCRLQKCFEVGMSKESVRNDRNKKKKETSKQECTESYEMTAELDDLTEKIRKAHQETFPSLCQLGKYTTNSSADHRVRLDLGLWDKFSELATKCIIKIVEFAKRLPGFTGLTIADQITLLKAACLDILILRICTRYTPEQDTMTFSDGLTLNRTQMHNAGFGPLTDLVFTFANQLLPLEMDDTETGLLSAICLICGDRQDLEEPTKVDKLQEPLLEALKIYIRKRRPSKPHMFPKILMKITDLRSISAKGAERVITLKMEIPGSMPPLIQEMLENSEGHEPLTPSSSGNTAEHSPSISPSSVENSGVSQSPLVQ
Excerpt: as §1, §2, §3

Row | SMILES | IC60 [1] | further results
1 | CCOC(=O)c1ccc(OC(=O)c2ccc3c(c2)C(S(=O)(=O)c2ccccc2)=CCC3(C)C)cc1 [Compound E24, Ethyl 4-[{(5,5-dimethyl-8-(phenylsulfonyl)-5,6dihydronaphthalen-2-yl)carbonyl}oxy]benzoate] | 8.3 nmols | 
2 | CC1(C)CCC2(SCCCS2)c2cc(/C=C/c3ccc(C(=O)O)cc3)ccc21 [Compound A24] |  | Kd [2]: 283 nM; Kd [3]: 259 nM; Kd [4]: 92 nM
3 | CCOC(=O)c1ccc(NC(=O)c2ccc3c(c2)C(OC2CCCCO2)CCC3(C)C)cc1 (single isomer, unassigned) [Compound E72b, Ethyl 4-[5,6,7,8-tetrahydro-8(R or S)-(2′(S or R)tetrahydropyranoxy)5,5-dimethylnaphthalene-2-yl)carboxamido]benzoate] | 18 nmols | 
4 | COCOC1CCC(C)(C)c2ccc(N=Nc3ccc(C(=O)O)cc3)cc21 (racemic) [Compound D7, (+/−) 4-[(5,5-Dimethyl-8-(methoxymethyloxy)-5,6,7,8-tetrahydronaphthalen-2-yl)azo]benzoic Acid] |  | Kd [2]: > 1000 nM; Kd [3]: > 1000 nM; Kd [4]: 226 nM
5 | CO/N=C1\CCC(C)(C)c2ccc(N=Nc3ccc(C(=O)O)cc3)cc21 [Compound D4, 4-[(8(7H)-Anti-(O-methyl oxime)-5,5-dimethyl-5,6-dihydronaphthalen-2-yl)azo]benzoic Acid] |  | Kd [3]: 363 nM; Kd [4]: 132 nM
6 | CCOC(=O)c1ccc(NC(=O)c2ccc3c(c2)C(=C(C)C)CCC3(C)C)cc1 [Compound E16] | 88.4 nmols | 
7 | CCOC(=O)/C=C(C)/C=C/C=C(\C)c1ccc2c(c1)C(OS(=O)(=O)C(F)(F)F)=CCC2(C)C [Compound C14, Ethyl 7-[4,4-dimethyl-3,4,-dihydronaphthalen-1-trifluoromethylsulfonyloxy-7-yl]-3,7-dimethyl-hept-2(E), 4(E), 6(E)trienoate] | 4 nmols | 
8 | CCOC(=O)c1ccc(/C=C/c2ccc3c(c2)C(Sc2ccccc2)=CCC3(C)C)cc1 [Compound A16, Ethyl (E)-4-[2-(5,6-dihydro-5,5-dimethyl-8-(phenylthio)-naphthalenyl)ethenyl] benzoate] |  | IC80 ([1]; concentration of the test compound which causes 80% inhibition in the ODC assay, cell marked (IC80)): 4.3 (IC80) nmols
9 | CCOC(=O)c1ccc(NC(=O)c2ccc3c(c2)C(C(C)(C)C)=CCC3(C)C)cc1 [Compound E79, Ethyl 4-[(5 .5-dimethyl-5,6-dihydro-8-(1,1-dimethylethyl)-2-naphthalenyl)carboxamido]-benzoate] | 5.3 nmols | 
10 | CCOC(=O)c1ccc(/C=C/c2ccc3c(c2)C(=C(CC)CC)CCC3(C)C)cc1 [Compound A27, Ethyl (E)-4-[2-(7,8-dihydro-5,5-dimethyl-8(7H)-(pentyliden-3-yl)-naphthalen-2-yl)ethenyl]-benzoate] | 0.7 nmols | 
11 | CCOC(=O)c1ccc(/C=C/c2ccc3c(c2)C(=O)CCC3(C)C)cc1 [Compound A2, Ethyl (E)-4-[2-(5,6-dihydro-5,5-dimethyl-naphthalen-8(7H)-one-2-yl)ethenyl]-benzoate] | 27 nmols | 
12 | CCOC(=O)c1ccc(N=Nc2ccc3c(c2)C(OCOC)CCC3(C)C)cc1 (racemic) [Compound D6, (+/−) Ethyl 4-[(5,5-dimethyl-8-(methoxymethyloxy)-5,6,7,8-tetrahydronaphthalen-2-yl)azo]benzoate] | 1.9 nmols | 
13 | CCOC(=O)/C=C(C)/C=C/C=C(\C)c1ccc2c(c1)C(c1cccs1)=CCC2(C)C [Compound C15, Ethyl 7-[4,4-dimethyl-3,4,-dihydronaphthalen-1-(2-thienyl)-7-yl]-3,7-dimethyl-hept-2(E), 4(E), 6(E)trienoate] | 14.5 nmols | 
14 | CCOC(=O)c1ccc(/N=N/c2ccc3c(c2)/C(=N/OC)CCC3(C)C)cc1 [Compound D3, Ethyl 4-[(8(7H)-anti-(O-methyl oxime)-5,5-dimethyl-5,6-dihydronaphthalen-2-yl)azo]benzoate] | 8.4 nmols | 
15 | CCOC(=O)c1ccc(OC(=O)c2ccc3c(c2)C(OC2CCCCO2)CCC3(C)C)cc1 (single isomer, unassigned) [Compound E56a, Ethyl 4-[5,6,7,8-tetrahydro-8(R or S)-(2′(R or S)-tetrahydropyranoxy)-5,5-dimethyl-2-napthoyloxy]benzoate] | 3.1 nmols | 
16 | CCOC(=O)c1ccc(/C=C/c2ccc3c(c2)C(C2SCCCS2)CCC3(C)C)cc1 (stereo not drawn) [Compound A23, Ethyl (E)-4-[-2-(5,6,7,8-tetrahydro-5,5-dimethyl-8-(1,3-dithian-2-yl)naphthalen-2-yl)ethenyl] benzoate] | 43.7 nmols | 
17 | CCON=C1CCC(C)(C)c2ccc(/C=C/c3ccc(C(=O)OCC)cc3)cc21 [Compound A5, Ethyl (E)-4-[2-(5,5-dimethyl-5,6,-dihydro-8(7H)-anti-(O-ethyl oxime)-naphthalen-2-yl)ethenyl]-benzoate] | 10.3 nmols | 
18 | CCOC(=O)c1ccc(OC(=O)c2ccc3c(c2)C(=C(C)C)CCC3(C)C)cc1 [Compound E15, Ethyl 4-[{(5,5-dimethyl-8(7H-(propyliden-2-yl)-5.6-dihydronaphthalen-2-yl)}carbonyl}oxy]benzoate] | 24.7 nmols | 
19 | CCON=C1CCC(C)(C)c2ccc(/C(C)=C/C=C/C(C)=C/C(=O)OCC)cc21 [Compound C22b, Ethyl 7-[4,4-dimethyl-3,4-dihydro-1(2H)-anti-(O-ethyl oxime)-naphth-7-yl]3,7-dimethyl-hepta-2(E),4(E),6(E)-trienoate] | 10 nmols | 
